From US4826854A, “Certain cycloalka-(b)-pyrazolo(3,4-d)-pyridin-3-one derivatives” (Ciba-Geigy Corporation, priority 1987, dated 1989)

Key:
benzodiazepine receptor = benzodiazepine receptor binding and agonist/antagonist profile (3H-flunitrazepam displacement, rat brain membranes)
Experimental: The benzodiazepine receptor binding properties indicative of the nervous system regulatory activity of said new compounds are determined in the receptor binding assay in vitro, e.g. similarly to that in Nature 266, 732 (1977) or Proc. Nat. Acad. Sci. USA 74, 3805 (1977). When tritiated flunitrazepam is used, the interaction of other drugs with said receptor can be readily assessed thus: Synaptosnal membranes from rat fore-brain are incubated at 0°-5° for 30 minutes with 0.5 nM tritiated flunitrazepam and various concentrations of the test substance in a buffer medium maintained at pH 7.5. […] The membranes, containing the receptors with various amounts of tritiated flunitrazepam, are filtered onto glass fiber filters, which are then analyzed in a liquid scintillation counter. […]
The pharmacological agonist and/or antagonist/inverse agonist profile of the benzodiazepine receptor modulators of the invention can also be determined by measuring their effect in a rat brain membrane preparation on the displacement of ^3 H-flunitrazepam in the presence or absence of gamma-aminobutric acid (GABA), on the enhancement of ^3 H-muscimol binding by etazolate, or on the binding of ^35 S-butyl bicyclophosphorothionate (TBPS), e.g. as described in J. Pharmacol. Exp. Ther. 231, 572 (1984).

rat = test: discrimination test in the rat; assay type: in vivo; settings: test compounds administered orally
Excerpt: Illustrative thereof is the compound of example 1.
The diazepam discrimination test, can also be used to determine benzodiazepine antagonist properties.

male Wistar rats = test: Cook-Davidson conflict procedure (anxiolytic effects); assay type: in vivo, rat; settings: e.g. as determined in the Cook-Davidson model
Excerpt: Anxiolytic effects are observed, for example, by measuring the antagonism of pentylenetetrazol discriminative stimuli in the rat and according to the Cook-Davidson conflict procedure, using male Wistar rats, e.g. as described in Drug Development Research 6: 313-325 (1985).

With `COc1ccc(-n2nc3c4c([nH]cc-3c2=O)CCCCCC4)cc1` [Example 1, 2-(4-methoxyphenyl)-2,3,6,7,8,9,10,11-octahydrocycloocta[b]pyrazolo[3,4-d]pyridin-3(5H)-one] the “pharmacological profile at the benzodiazepine receptor” value (benzodiazepine receptor) was “benzodiazepine agonist profile”, the “generalization to the discrimination test” value (rat) was “do not generalize to the discrimination test” and the anxiolytic properties (male Wistar rats) was “demonstrate anxiolytic properties”.

In the case of `O=c1c2c[nH]c3c(c-2nn1-c1ccc(Cl)cc1)CCCCCC3` [Example 2b, 2-(4-chlorophenyl)-2,3,6,7,8,9,10,11-octahydrocycloocta[b]pyrazolo[3,4-d]-pyridin-3(5H)-one], the “pharmacological profile at the benzodiazepine receptor” value (benzodiazepine receptor) is reported as “benzodiazepine agonist profile”.
